Laboratory results reported in publication PMC4104029, “Mechanism of Action of Compound-13: An α1-Selective Small Molecule Activator of AMPK” (Chemistry & Biology, 2014).

Target: T1, AMPK α2/α1 LOOP β1γ1 (Homo sapiens, UniProt P54619+P54646, A386E/A396G/C382H/D376E/DEL348-348/DEL355-359/G349D/G362L/I374V/K364R/K379R/L363T/L395Q/M352L/M370V/P360H/P361H/P372F/P383T/P392S/S377T/S394H/T389P/T390Q)
T1 construct: 6×His (N); made in house; host or cells: E. coli (tricistronic pET15-b construct)
Test: Chimeric AMPK complex activation assay
Format: biochemical
Settings: complex expressed in E. coli; read-out: EC50, allosteric activation
Source text: Figure 3 Regulatory Elements within the α-Linker Determine the Isoform Specificity of C2 (A) Diagram illustrating the domain organization of the AMPKα subunit with a global pairwise alignment of a section of the α-linker of human AMPKα1 (Q13131) and AMPKα2 (P54646). Regulatory elements in the α-linker are highlighted, including the α-hook as originally defined by [Xiao et al. (2011)] (pink) and the reassigned sequence (also known as α-RIM2) shaded in orange. The secondary structure for α1 is derived from PDB ID 2Y94. The table summarizes the sequences of the α1/α2 chimeras produced to examine the role of various structural elements in the activation of α2β1γ1 complexes by C2. (B–E) Human AMPKα1/α2 chimeras (defined in A) were generated as complexes with β1γ1 in E. coli. Purified active complexes were assayed for the activation of phosphotransferase activity by AMP and C2, as described in Figure 1. Results (line graphs) are expressed as the fold increase in activity relative to reactions performed in the absence of compound and represent the mean ± SD of three independent experiments. Complexes were also assayed for protection against dephosphorylation and inactivation by PP2Cα, as described in Figures 2C and 2D. Results (bar charts) are expressed as the mean (percentage of control) ± SD of three independent experiments. Representative blots of pT172 and total AMPKα are shown below the bar charts. TEXT PRINTED IN THE PICTURE: (B) C2: AMPK211 - α2/α1 CAT: EC50: ND | (B) AMP: AMPK211 - α2/α1 CAT: EC50: 1.3 ± 0.2 μM | (C) C2: AMPK211 - α2/α1 REG: EC50: 0.009 ± 0.0006 μM | (C) AMP: AMPK211 - α2/α1 REG: EC50: 3.1 ± 0.3 μM | (D) C2: AMPK211 - α2/α1 HOOK: EC50: ND | (D) AMP: AMPK211 - α2/α1 HOOK: EC50: 1.4 ± 0.2 μM | (E) C2: AMPK211 + α2/α1 LOOP: EC50: 0.013 ± 0.001 μM | (E) AMP: AMPK211 + α2/α1 LOOP: EC50: 2.7 ± 0.3 μM […]
AMPK phosphotransferase activity was assayed in reactions (50 μl) containing 50 mM HEPES, pH 7.4, 10 mM MgCl2, 0.1 mM EGTA, 1 mM DTT, 0.01% BRIJ-35, 100 μM [γ-^32P]ATP (∼250 CPM⋅pmol^−1) and 200 μM AMARA (AMARAASAAALARRR). Reactions were started by the addition of AMPK (5 mU), incubated for 20 min at 30°C and quenched by spotting onto P81 and immersion in 75 mM H3PO4. Washed filters were dried and [^32P] incorporation determined by Cherenkov counting. AMPK activity in cell extracts was determined by immunoprecipitation with AMPKα1 or AMPKα2 antibodies from 50 μg material, as previously described ([Hunter et al., 2011]). […]

T1 sequence (Q9Y478 2-270, stated change not applied): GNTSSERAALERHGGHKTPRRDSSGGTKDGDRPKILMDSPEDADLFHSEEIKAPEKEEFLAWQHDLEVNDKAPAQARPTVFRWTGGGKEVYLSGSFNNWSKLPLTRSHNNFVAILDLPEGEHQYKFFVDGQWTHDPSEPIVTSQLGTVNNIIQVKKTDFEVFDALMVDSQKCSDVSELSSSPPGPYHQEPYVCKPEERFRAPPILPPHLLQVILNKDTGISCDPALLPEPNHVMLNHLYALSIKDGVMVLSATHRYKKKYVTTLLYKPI
T1 sequence (P54646 other isoform, or with tags, fused parts or gaps with the stated changes): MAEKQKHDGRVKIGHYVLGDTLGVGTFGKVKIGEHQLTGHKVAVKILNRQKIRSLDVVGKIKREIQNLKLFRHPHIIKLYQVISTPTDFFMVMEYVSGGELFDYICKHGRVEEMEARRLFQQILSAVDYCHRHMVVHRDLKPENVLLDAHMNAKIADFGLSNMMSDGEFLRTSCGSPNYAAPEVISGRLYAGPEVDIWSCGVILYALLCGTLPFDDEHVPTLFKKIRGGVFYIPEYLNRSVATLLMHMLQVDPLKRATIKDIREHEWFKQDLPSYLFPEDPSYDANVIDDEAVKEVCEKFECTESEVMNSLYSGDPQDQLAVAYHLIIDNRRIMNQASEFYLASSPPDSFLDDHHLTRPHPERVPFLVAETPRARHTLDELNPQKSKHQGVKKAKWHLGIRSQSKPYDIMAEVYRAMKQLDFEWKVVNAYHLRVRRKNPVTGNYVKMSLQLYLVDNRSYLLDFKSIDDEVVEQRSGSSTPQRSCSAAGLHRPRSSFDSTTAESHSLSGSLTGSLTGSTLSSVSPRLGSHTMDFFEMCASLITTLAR
T1 sequence (P54619 whole entry, stated change not applied): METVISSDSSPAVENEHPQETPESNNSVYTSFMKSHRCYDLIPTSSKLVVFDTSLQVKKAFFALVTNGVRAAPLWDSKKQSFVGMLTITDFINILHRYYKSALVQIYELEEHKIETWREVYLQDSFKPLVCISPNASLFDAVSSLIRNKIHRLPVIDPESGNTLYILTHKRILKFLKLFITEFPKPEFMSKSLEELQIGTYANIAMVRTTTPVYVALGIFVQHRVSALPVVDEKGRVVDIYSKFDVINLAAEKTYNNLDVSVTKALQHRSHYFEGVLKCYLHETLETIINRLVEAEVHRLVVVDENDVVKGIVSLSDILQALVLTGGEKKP

| SMILES | EC50 [nM] |
| --- | --- |
| Nc1ncnc2c1ncn2[C@@H]1O[C@H](COP(=O)(O)O)[C@@H](O)[C@H]1O [AMP, reference compound] | 2700 ± 300 |
| O=P(O)(O)c1ccc(-c2cc(O)on2)o1 [Compound C2, 5-(5-hydroxyl-isoxazol-3-yl)-furan-2-phosphonic acid] | 13 ± 1 |
